According to US8575360B2, “Derivatives of 6,7-dihydro-5H-imidazo[1,2-a]imidazole-3-carboxylic acid amides” (Boehringer Ingelheim International GmbH, priority 2009, dated 2013):

target: T1, LFA-1 (CD18/CD11a) binding to ICAM-1 (Homo sapiens, UniProt P05107+P20701); assay: LFA-1/Biotin-sICAM-1 AlphaScreen assay: inhibition of LFA-1 binding to ICAM-1; conditions: 37° C. 90 minutes, highest compound concentration 1 μM
T1 construct: followed by purified LFA-1 (in buffer of 50 mM triethylamine, 150 mM NaCl, 1% beta octylglucoside)
From the text: Assay to Determine Inhibition of LFA-1 Binding to ICAM-1
This assay protocol is designed to study the direct antagonism, by a test compound, of the interaction of ICAM-1 with the Leukointegrin CD18/CD11a (LFA-1).
The LFA-1/Biotin-sICAM-1 molecular assay measures the ability of test compounds to inhibit binding of LFA-1 to Biotinylated-sICAM using AlphaScreen technology (Ref: Wilson, J, Rossi, C P, Carboni, S, Fremaux, C, Perrin, D, Soto, C, Kosco-Vilbois, M, and Scheer, A: A Homogeneous 384-Well High-Throughput Binding Assay for a TNF Receptor Using Alphascreen Technology. J Biomol Screen 2003; 8:522-532) that uses TS2/4(anti-LFA-1)-custom conjugated AlphaLisa acceptor beads and streptavidin-coated donor beads from PerkinElmer. The assay was performed in white OptiPlates-384 in a volume of 60 μL using assay buffer (Dulbecco's PBS containing calcium and magnesium, 2 mM MgCl2, 0.1 mM PMSF, 0.1% BSA, pH 7.1). To each well, Biotin-sICAM was added followed by purified LFA-1 (in buffer of 50 mM triethylamine, 150 mM NaCl, 1% beta octylglucoside, 2 mM MgCl2 neutralized to pH with 1M Tris-HCl, pH 7.5). For compound testing, compound was added in 5 uL to the above in 25 uL. LFA-1 and Biotin-sICAM-1 were used at concentrations that would yield a signal to background ratio of 8-10. The highest concentration of compound was 1 μM in 1% DMSO. Positive controls were wells without compound containing LFA-1, while blanks were wells without both compound and LFA-1. Plates were mixed and incubated at 37° C. for 90 minutes. This was followed by addition of 15 μL/well TS2/4-conjugated acceptor beads diluted in PBS containing 0.1% BSA for a final concentration of 10 μg/mL. The plates were mixed and incubated in the dark for 30 minutes at room temperature followed by addition of 15 μL/well streptavidin-coated donor beads diluted in PBS containing 0.1% BSA at a final concentration of 15 μg/mL. The plates were mixed and incubated in the dark for 60 minutes at room temperature and then read on an EnVision Multilabel Reader using AlphaScreen 384-well OptiPlate protocol.

T1 sequence (P20701 26-1170): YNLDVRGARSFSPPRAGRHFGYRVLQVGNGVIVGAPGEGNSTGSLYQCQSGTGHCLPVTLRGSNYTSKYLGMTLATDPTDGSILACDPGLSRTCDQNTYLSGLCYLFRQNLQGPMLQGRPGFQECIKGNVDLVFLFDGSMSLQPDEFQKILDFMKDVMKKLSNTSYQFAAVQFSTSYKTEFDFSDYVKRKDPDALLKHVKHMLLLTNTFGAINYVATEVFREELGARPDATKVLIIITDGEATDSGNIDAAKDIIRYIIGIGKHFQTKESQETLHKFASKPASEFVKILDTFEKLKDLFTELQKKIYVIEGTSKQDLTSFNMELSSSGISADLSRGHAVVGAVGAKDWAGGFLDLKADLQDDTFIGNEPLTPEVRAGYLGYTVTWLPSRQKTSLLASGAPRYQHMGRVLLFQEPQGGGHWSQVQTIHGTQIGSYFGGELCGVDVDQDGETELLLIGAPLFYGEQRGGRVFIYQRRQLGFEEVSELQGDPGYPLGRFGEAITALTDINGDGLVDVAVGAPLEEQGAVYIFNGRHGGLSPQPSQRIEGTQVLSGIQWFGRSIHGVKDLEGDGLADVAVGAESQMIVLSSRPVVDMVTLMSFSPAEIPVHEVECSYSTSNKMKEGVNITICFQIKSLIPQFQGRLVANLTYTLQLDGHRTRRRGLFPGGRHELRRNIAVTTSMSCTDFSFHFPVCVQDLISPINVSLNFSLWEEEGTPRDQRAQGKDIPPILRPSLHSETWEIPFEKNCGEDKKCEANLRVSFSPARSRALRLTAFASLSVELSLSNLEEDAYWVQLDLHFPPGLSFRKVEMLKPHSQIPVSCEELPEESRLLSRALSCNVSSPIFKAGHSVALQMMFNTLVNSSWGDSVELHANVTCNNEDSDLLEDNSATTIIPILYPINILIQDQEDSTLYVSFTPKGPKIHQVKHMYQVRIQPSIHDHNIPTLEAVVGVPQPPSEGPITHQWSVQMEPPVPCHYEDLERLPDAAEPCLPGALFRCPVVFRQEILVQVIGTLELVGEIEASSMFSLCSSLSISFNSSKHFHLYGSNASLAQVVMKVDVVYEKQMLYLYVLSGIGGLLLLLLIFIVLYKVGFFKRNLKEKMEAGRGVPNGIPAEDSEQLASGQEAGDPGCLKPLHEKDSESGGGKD
T1 sequence (P05107 23-769 partner): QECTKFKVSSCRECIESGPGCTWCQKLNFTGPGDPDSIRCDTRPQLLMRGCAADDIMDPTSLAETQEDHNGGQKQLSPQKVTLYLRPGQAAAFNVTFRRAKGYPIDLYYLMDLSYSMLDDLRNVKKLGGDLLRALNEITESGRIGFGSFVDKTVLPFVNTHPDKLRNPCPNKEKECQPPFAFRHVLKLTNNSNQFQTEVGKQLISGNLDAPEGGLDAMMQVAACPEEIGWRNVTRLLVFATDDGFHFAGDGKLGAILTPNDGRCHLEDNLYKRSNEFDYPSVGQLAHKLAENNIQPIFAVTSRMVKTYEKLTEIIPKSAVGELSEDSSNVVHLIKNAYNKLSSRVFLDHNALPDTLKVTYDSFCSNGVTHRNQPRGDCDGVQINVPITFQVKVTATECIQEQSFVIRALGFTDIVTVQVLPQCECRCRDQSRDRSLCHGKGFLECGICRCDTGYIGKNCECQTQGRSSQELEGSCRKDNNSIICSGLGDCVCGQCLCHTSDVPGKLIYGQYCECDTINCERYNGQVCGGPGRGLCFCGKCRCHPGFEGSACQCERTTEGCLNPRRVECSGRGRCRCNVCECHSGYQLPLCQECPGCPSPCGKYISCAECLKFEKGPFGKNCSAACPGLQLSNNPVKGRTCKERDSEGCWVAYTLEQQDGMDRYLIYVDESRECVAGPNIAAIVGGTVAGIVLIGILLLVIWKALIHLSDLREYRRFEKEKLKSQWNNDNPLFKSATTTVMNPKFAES

Compared with `C[C@@]1(Cc2ccc(C#N)cc2)C(=O)N(c2cc(Cl)cc(Cl)c2)c2ncc(C(=O)NC3(C(=O)NC4(c5ccc(-c6cnc7[nH]ccc7c6)cn5)CC4)CC3)n21` [Compound 146], `Cn1cc(-c2ccc(C3(NC(=O)C4(NC(=O)c5cnc6n5[C@](C)(Cc5ccc(C#N)cc5)C(=O)N6c5cc(Cl)cc(Cl)c5)CC4)CC3)nc2)cn1` [Compound 149] is 4.8-fold lower in IC50: 1.6 nM for the first, 0.33 nM for the second. The second is the more potent here.

`Cc1nn(C)cc1-c1ccc(C2(NC(=O)C3(NC(=O)c4cnc5n4[C@](C)(Cc4ccc(OC(F)(F)F)cc4)C(=O)N5c4cc(Cl)c(F)c(Cl)c4)CC3)CC2)cn1` [Compound 150] and `Cc1n[nH]c(C)c1-c1ccc(C2(NC(=O)C3(NC(=O)c4cnc5n4[C@](C)(Cc4ccc(C#N)cc4)C(=O)N5c4cc(Cl)c(F)c(Cl)c4)CC3)CC2)nc1` [Compound 157] are within 1.5-fold of each other in IC50: 0.68 nM for the first, 0.91 nM for the second.

Compared with `CC(O)C(NC(=O)c1cnc2n1C(C)(Cc1ccc(C#N)cc1)C(=O)N2c1cc(Cl)c(F)c(Cl)c1)C(=O)NC1(c2ccc(-c3cnn(C)c3)nc2)CC1` (stereo not drawn) [Compound 152], `Cc1nn(C)cc1-c1ccc(C2(NC(=O)[C@@H](NC(=O)c3cnc4n3[C@](C)(Cc3ccc(C#N)cc3)C(=O)N4c3cc(Cl)c(F)c(Cl)c3)[C@@H](C)O)CC2)nc1` [Compound 155] is 2-fold lower in IC50: 1.1 nM for the first, 0.56 nM for the second. The second is the more potent here.

`Cc1nn(C)cc1-c1ccc(C2(NC(=O)[C@H](CO)NC(=O)c3cnc4n3[C@](C)(Cc3ccc(C#N)cc3)C(=O)N4c3cc(Cl)c(F)c(Cl)c3)CC2)nc1` [Compound 154] and `C[C@@H](NC(=O)C1(NC(=O)c2cnc3n2[C@](C)(Cc2ccc(C#N)cc2)C(=O)N3c2cc(Cl)c(F)c(Cl)c2)CC1)c1ccc(-c2ccc(CO)nc2)nc1` [Compound 160] are within 1.5-fold of each other in IC50: 0.76 nM for the first, 0.59 nM for the second.

With `C[C@@]1(Cc2ccc(C#N)cc2)C(=O)N(c2cc(Cl)c(F)c(Cl)c2)c2ncc(C(=O)NC3(C(=O)NC4(c5ccc(-c6ccc(S(C)(=O)=O)cc6)cn5)CC4)CC3)n21` [Compound 158] the IC50 was 1.3 nM.
